Each block holds one compound with its values, some of them ahead of it.
Test: solvent given as SMILES

fluorescence lifetime (in CC#N): 232 ns | fluorescence lifetime (in CO): 119 ns | fluorescence lifetime (in ClC(Cl)Cl): 38 ns
Compound: NCc1ccc2ccc3cccc4ccc1c2c34

Compound: C#Cc1ccc2ccc3cccc4ccc1c2c34
fluorescence lifetime (in C1CCCCC1): 14.9 ns | fluorescence lifetime (in CC#N): 13.4 ns | fluorescence lifetime (in CO): 17.8 ns | fluorescence lifetime (in ClCCl): 20.5 ns

fluorescence lifetime (in CO): 0.24 ns | fluorescence lifetime (in ClC(Cl)Cl): 1.95 ns
Compound: CC[n+]1c(C=C2C(=O)C(C=C3N(C)c4ccccc4C3(C)C)=C2[O-])sc2ccccc21

fluorescence lifetime (in CC1CCCCC1): 1.23 ns | fluorescence lifetime (in CC#N): 1.47 ns | fluorescence lifetime (in CO): 1.53 ns
Compound: COC(=O)C(NC(=O)OC(C)(C)C)c1ccc2oc(-c3ccc(F)cc3)nc2c1 (stereo unspecified)

fluorescence lifetime (in C1CCCCC1): 4.6 ns
Compound: c1ccc2c(c1)[nH]c1cccnc12

fluorescence lifetime (in ClC(Cl)Cl): 6.2 ns
Compound: COc1ccc2c3ccc(OC)cc3c3cc4c(C)cc(=O)oc4cc3c2c1

fluorescence lifetime (in C1CCOC1): 1.9 ns
Compound: CCC1(CC)c2ccccc2-c2c1c1c(c3c2C(CC)(CC)c2cc(N(c4ccccc4)c4ccccc4)ccc2-3)C(CC)(CC)c2cc(N(c3ccccc3)c3ccccc3)ccc2-1

fluorescence lifetime (in CC#N): 6.92 ns | fluorescence lifetime (in CCCCCC): 3.35 ns | fluorescence lifetime (in CO): 4.04 ns | fluorescence lifetime (in ClC(Cl)Cl): 4.22 ns
Compound: c1ccc2cc3cc(-c4cc(-c5nccs5)nc(-c5nccs5)c4)ccc3cc2c1

Compound: Cc1cc(C)c(B(c2ccc(-c3cc4ccc5cccc6ccc(c3)c4c56)cc2)c2c(C)cc(C)cc2C)c(C)c1
fluorescence lifetime (in Cc1ccccc1): 65 ns

fluorescence lifetime (in c1cc(-c2cccc(-n3c4ccccc4c4ccccc43)c2)cc(-n2c3ccccc3c3ccccc32)c1): 28.1 ns
Compound: CC(C)(C)c1ccc2c(c1)c1cc(C(C)(C)C)ccc1n2-c1cc(C(=O)c2ccncc2)cc(-n2c3ccc(C(C)(C)C)cc3c3cc(C(C)(C)C)ccc32)c1

fluorescence lifetime (in CS(C)=O): 9.1 ns
Compound: O=c1c2ccccc2[nH]c2ccccc12

fluorescence lifetime (in CO): 5.7 ns
Compound: CC1=CC(C)=[N+]2C1=Cc1ccc(CCC(=O)ON3C(=O)CCC3=O)n1[B-]2(F)F

Compound: CCCCCCOc1ccc(C#Cc2ccc(C#CC#Cc3ccc(C#Cc4ccc(OCCCCCC)c(OCCCCCC)c4)c4nsnc34)c3nsnc23)cc1OCCCCCC
fluorescence lifetime (in CN(C)C=O): 0.5 ns | fluorescence lifetime (in COc1ccccc1): 2.2 ns | fluorescence lifetime (in Cc1ccccc1): 1.9 ns | fluorescence lifetime (in ClC(Cl)Cl): 2.6 ns | fluorescence lifetime (in ClCCCl): 2 ns | fluorescence lifetime (in ClCCl): 2.5 ns

fluorescence lifetime (in C1CCCCC1): 4.1 ns | fluorescence lifetime (in CC#N): 4.5 ns | fluorescence lifetime (in ClCCl): 5 ns
Compound: c1ccc2c(-c3ccc4sc5ccccc5c4c3)c3ccccc3cc2c1

fluorescence lifetime (in CS(C)=O): 10.2 ns | fluorescence lifetime (in O): 15.6 ns
Compound: CCCCCn1c2ccc(S(=O)(=O)O)cc2c(=O)c2cc(S(=O)(=O)O)ccc21

fluorescence lifetime (in ClCCl): 6.1 ns
Compound: CC(C)(C)c1ccc(-c2nc3c4ccc(-c5c6ccccc6cc6ccccc56)cc4c4cc(-c5c6ccccc6cc6ccccc56)ccc4c3n2-c2ccc(C(C)(C)C)cc2)cc1

Compound: Cc1ccc(C2=C3C=CC(C#Cc4ccccc4)=[N+]3[B-](F)(F)n3c(Cl)ccc32)cc1
fluorescence lifetime (in C1CCCCC1): 4.31 ns | fluorescence lifetime (in C1CCOC1): 4.24 ns | fluorescence lifetime (in C1COCCO1): 4.43 ns | fluorescence lifetime (in CCOC(C)=O): 4.34 ns | fluorescence lifetime (in CO): 4.25 ns | fluorescence lifetime (in Cc1ccccc1): 4.45 ns | fluorescence lifetime (in ClC(Cl)Cl): 4.73 ns

Compound: c1ccc(N(c2ccccc2)c2c3ccccc3cc3ccccc23)cc1
fluorescence lifetime (in Cc1ccccc1): 21 ns

fluorescence lifetime (in CCCCCC): 65.8 ns | fluorescence lifetime (in CO): 75 ns | fluorescence lifetime (in ClCCl): 56.7 ns
Compound: CCCCc1cc(CCCC)c2ccc3c(CCCC)cc(CCCC)c4ccc1c2c43

Compound: CCC1=C(C)C2=Cc3c(I)c(I)c(I)n3[B-](F)(F)[N+]2=C1C
fluorescence lifetime (in C1CCCCC1): 0.358 ns | fluorescence lifetime (in CC(C)=O): 0.198 ns | fluorescence lifetime (in CCO): 0.244 ns | fluorescence lifetime (in CCOC(C)=O): 0.236 ns | fluorescence lifetime (in CO): 0.22 ns | fluorescence lifetime (in OCC(F)(F)F): 0.18 ns

fluorescence lifetime (in CC#N): 1.91 ns | fluorescence lifetime (in ClCCl): 1.37 ns
Compound: Nc1nc2ccc(Br)cc2s1

fluorescence lifetime (in C1CCCCC1): 30 ns
Compound: C[SiH](C)c1ccc([SiH](C)C)c2ccccc12

Compound: COc1cc(N(c2ccccc2)c2ccccc2)ccc1C=C(C#N)C#N
fluorescence lifetime (in C1COCCO1): 0.04 ns | fluorescence lifetime (in CC#N): 0.02 ns | fluorescence lifetime (in CC(C)=O): 0.05 ns | fluorescence lifetime (in CCOC(C)=O): 0.07 ns | fluorescence lifetime (in CN(C)C=O): 0.03 ns | fluorescence lifetime (in CO): 0.02 ns | fluorescence lifetime (in Cc1ccccc1): 0.03 ns | fluorescence lifetime (in ClC(Cl)Cl): 0.1 ns | fluorescence lifetime (in ClCCl): 0.06 ns

Compound: CC(C)c1cc(C(C)C)c(B2c3ccccc3Oc3cc(-n4c5ccccc5c5ccc6c(c7ccccc7n6-c6ccccc6)c54)ccc32)c(C(C)C)c1
fluorescence lifetime (in CC(C)c1cc(C(C)C)c(-c2ccc(-n3c4ccccc4n4c5ccccc5nc34)nc2)c(C(C)C)c1): 29.6 ns | fluorescence lifetime (in O=P(c1ccccc1)(c1ccccc1)c1ccccc1Oc1ccccc1P(=O)(c1ccccc1)c1ccccc1): 27 ns

Reference: the Deep4Chem optical property database
